Results taken from US7883723B2, “Water soluble chitosan nanoparticle for delivering an anticancer agent and preparing method thereof” (priority 2004, dated 2011).
Read-outs that look alike come from different tables or passages of the source.

System: CT-26 mourine tumor cells
Conditions: for survival rate of mice: FIG. 8
Method: Female BALB/c mice (average weight: 20 g) were injected subcutaneously in the flank with CT-26 mourine tumor cells (5×10^4 cells/mouse). When the tumor was growing to the size of 3 mm×3 mm, the mice were divided into two groups; an experimental group and a control group. Each group was filled with 8 mice having a tumor and they were marked in their ears for the observation. 15 days after the transplantation, the administration (an intravenous injection) of drug and vehicle began. Each test drug was administered both with low dose of 2 mg/kg and with high dose of 10 mg/kg every three days four times total for 12 days. Only vehicle (cremophor:dehydrated ethyl alcohol, 1:1 v/v) was administered to a control group. Death rate of mice was checked every day and the growth of a tumor was measured using caliper measurement device at two or three day interval. Tumor volume was calculated by the following Formula 2. Tumor volume: mm^3=(Length×Width^2)/2 <Formula 2>
A drug or a vehicle was injected into tail vein of a mouse two weeks after tumor transplantation.
Tumor volume was measured from the 15th day after tumor cell transplantation.

`CC(=O)O[C@H]1C(=O)[C@@]2(C)[C@H]([C@H](OC(=O)c3ccccc3)[C@]3(O)C[C@H](OC(=O)[C@H](O)[C@@H](NC(=O)c4ccccc4)c4ccccc4)C(C)=C1C3(C)C)[C@]1(OC(C)=O)CO[C@@H]1C[C@@H]2O` [paclitaxel] was tested, and the “time for which tumor growth was inhibited before regrowth” value (10 mg/kg i.v., CT-26 tumor mice, FIG. 9) was 30 days, the “survival rate of mice” value (high dose 10 mg/kg i.v. every three days four times, CT-26 tumor mice) was “not much different from each other” and the “tumor volume / anticancer activity” value (high dose 10 mg/kg i.v., CT-26 tumor mice, FIG. 9) was “remarkably decreased”. For the same compound, the “survival rate of mice” value (low dose 2 mg/kg i.v. every three days four times, CT-26 tumor mice) was “not much different from each other”, the “tumor volume / tumor growth” value (low dose 2 mg/kg i.v., CT-26 tumor mice, FIG. 9) was “not much different between them” and the “weight changes of mice” value (mouse, in vivo) was “not significantly different”.
